Results published in US20220133679A1, “EFFLUX INHIBITOR COMPOSITIONS AND METHODS OF TREATMENT USING THE SAME” (Izumi Technology, LLC, priority 2012, published 2022).
Several values for one entry are separate records, joined by “and”; a condition that tells them apart may be missing. Identical values can stand only once. Like-named read-outs stand apart in the source and are kept apart here. Values belong to the molecule of their own block, whether it stands above or below them.

Experiments:
[1] = Therapeutic agent brain penetration studies (brain concentration); type: in vivo, wildtype FVB mice; details: for concentration at 1 h: female; for concentration at 1 h / Brain concentration of loperamide, individual animals / Brain concentration of loperamide, mean: 1 h
Protocol: The drug was administered within 1 h of preparation.
Animals received food and water ad libitum.
(§1) Samples were pre-treated as follows. […] 1000 μl of diethyl ether was added.

in vivo = details: for concentration at 60 min / concentration at 5 min / concentration at 30 min / AUC(0-t): female, FVB (wildtype), mouse, in vivo; for AUC(0-t): iv
Protocol: The following elacridar nanoparticle suspension was used in these experiments: 5% elacridar w/w plus 1% w/w TPGS, where 2 ml of NP formulation was diluted with 8 ml of 20% TPGS to give a final elacridar concentration of 10 mg/ml.
The drug was mixed, sonicated and administered within 1 h. The dose used was 50 mg/kg (10 μl/g).
The drug was mixed by vortex and administered within 1.5 h. The dose used was 33 mg/kg (10 μl/g).
The drug was administered within 1 h of preparation. The dose used was 5 mg/kg (5 μl/g).
Non-transgenic (wildtype) FVB mice, females, aged 8 to 10 weeks were used. Animals received food and water ad libitum. Mice in the treatment group (n=5) received elacridar NP formulation orally by gavage in the morning (9-10 am). Mice in the control group (n=5) received no elacridar. All mice (treatment and control group) received the therapeutic agent by i.v. injection in the tail vein in the afternoon (3-4 pm). Blood samples (50 μl) were drawn by bleeding from the tip of the tail at 5 min and 30 min after drug administration. At 1 h after API administration the animals were anesthetized using isoflurane and blood was drawn by cardiac puncture. Next, the animal was killed by cervical dislocation and the brains were harvested. Blood was kept on ice until centrifugation (5 min at 5000 g) within 2 h. Brains were kept on ice for weighing and stored at −20° C. until homogenization. Brains were homogenized in 3 ml of 1% w/v of bovine serum albumin in water.
The mice received elacridar at the standard dose of 100 mg/kg. […] The i.v. administration route was selected for the therapeutic agent in order to achieve the most similar plasma exposure of the therapeutic agent between animals receiving therapeutic agent alone or therapeutic agent with elacridar.
Samples were pre-treated as follows. Plasma (5 to 100 μl) was made up to 100 μl with blank human plasma or brain homogenate (100 μl) and pipetted into a 2 ml eppendorf vial. 50 μl of the internal standard (IS) solution (1000 nM of the deuterated analyte) in acetonitrile:water (30:70; v/v) was added. 1000 μl of diethyl ether was added. Tubes were vigorously mixed for at least 5 min then centrifuged (5 min at 5000 g) before being placed in a bath of ethanol with dry-ice in order to freeze the aqueous bottom layer. The organic supernatant was decanted into a clean 1.5 ml Brand vial and evaporated under vacuum in a Speed-Vac (Savant).
For HPLC-MS/MS analyses, the HPLC systems consisted of an Ultimate DGP-3600A pump with a SRD-3600 Solvent Rack and a model WPS-3000TSL autosampler (Dionex, Sunnyvale, Calif., USA). The HPLC column (100×2.1 mm) was packed with 3 um C18 Extend material. The column effluent was guided to an electrospray ionization (ESI) source of an AP13000 mass spectrometer (ABSciex). The mobile phase composition was: Mobile phase A was 0.1% formic acid in water; and Mobile phase B was Methanol (LC-MS quality, Merck).
Pharmacokinetic analyses were performed using the Microsoft Excel add-in program PKsolver (see e.g., Ward K W et al., J Pharmacol Exp Ther 2004; 310: 703-9, which is incorporated herein in its entirety). Calculations for oral administrations were done by the non-compartmental analyses—extravascular model, whereas we used the non-compartmental analysis—bolus model for i.v. injections. The maximum plasma levels (Cmax) were calculated by comparing the means of the plasma levels at each time point. The Tmax is considered the time point at which the Cmax was reached. The half-life (T½) was calculated from the final log-linear part of the plasma concentration-time curves. The area-under-the-curve for the plasma concentration (plasma AUC) was calculated using the linear trapezoidal rule. Both the AUC from time=0 to the last sampling point (48 h) as well as the AUC extrapolated to infinity was calculated. The oral bioavailability was calculated based on the AUC(0-inf) values. Student t-test was used to compare the means of groups where applicable.

[2] = design: species or system female Sprague-Dawley rats; details: rat, in vivo, iv, 5 mg/kg
Protocol: Studies were conducted in female Sprague-Dawley rats. […] The selected 100 mg/kg dose is well above the level where nonlinear pharmacokinetics have been documented. Ten animals were used at weekly intervals between each dosing to allow washout of the drug from the previous dosing.
Elacridar suspension formulation was prepared by weighing 100.03 mg of elacridar, which was first suspended in 5 ml of water, followed by 5 ml of vehicle solution (2.5% w/v of hydroxypropyl methyl cellulose (HPMC) and 2% v/v of Tween 80). This suspension was stirred for about 2.5 hours prior to dosing. The final concentration was 10 mg/ml. This suspension was given at 10 μl per gram body weight to achieve a dose level of 100 mg/kg
Elacridar nanoparticle (NP) suspensions were used as received, except for a final 5-fold dilution step to obtain a NP suspension of 10 mg/ml of elacridar.
There were three study groups: 1) Elacridar Suspension (n=4); 2) Elacridar TPGS nanoparticles (n=5); and 3) Elacridar Poloxamer nanoparticles (n=5). All animals received elacridar orally by gavage under light isoflurane anesthesia. The animals were fasted for a period of 3 h before drug administration. Food pellets were returned to the cages after the 4 h sampling point. Blood samples from the tail vein at: 15, 30 min, 1, 2, 4, 7, 24, 30 and 48 hours. Samples were kept on ice and centrifuged within 2 h to separate plasma. Plasma was stored at −20° C.
Formulation for i.v. administration was prepared by weighing 61.12 mg of elacridar and dissolving this in 2.056 ml of DMSO. The final concentration was 30 mg/ml. Animals (n=4) received […] per gram body weight (5 mg/kg). Blood samples were taken from the tail vein at: 5, 15, 30 min, 1, 2, 4, 7, 24, 30 and 48 h. Samples were kept on ice and centrifuged within 2 h to separate plasma. Plasma was stored at −20° C.
as §1

[3] = Docetaxel plasma concentration, mean
[4] = loperamide 5 mg/kg i.v. with elacridar TPGS NP 100 mg/kg p.o. about 6 h before
[5] = imatinib with elacridar, 30 min
[6] = imatinib with elacridar, 60 min

complications of dosing ([1]; mouse, in vivo, iv): without complications | concentration at 60 min (in vivo; Docetaxel plasma concentration, individual animals): 3030 ng/mL | concentration at 5 min (in vivo; [3]): 206000 ng/mL | concentration at 30 min (in vivo; [3]): 12200 ng/mL | concentration at 60 min (in vivo; [3]): 2570 ng/mL | AUC(0-t) (in vivo; 33 mg/kg, Docetaxel plasma AUC(0-1 h), individual animals): 54100 ng·h/mL | AUC(0-t) (in vivo; 33 mg/kg, Docetaxel plasma AUC(0-1 h), mean): 53300 ng·h/mL
Molecule: CC(=O)O[C@@]12CO[C@@H]1C[C@H](O)[C@@]1(C)C(=O)[C@H](O)C3=C(C)[C@@H](OC(=O)[C@H](O)[C@@H](NC(=O)OC(C)(C)C)c4ccccc4)C[C@@](O)([C@@H](OC(=O)c4ccccc4)[C@H]21)C3(C)C [docetaxel]

Molecule: CN(C)C(=O)C(CCN1CCC(O)(c2ccc(Cl)cc2)CC1)(c1ccccc1)c1ccccc1 [loperamide]
complications of dosing ([1]; FVB mice, i.v., control group (no elacridar)): went smoothly | complications of dosing ([1]; FVB mice, loperamide 5 mg/kg i.v. and elacridar NP 100 mg/kg p.o.): one animal died within 5 minutes after drug administration, whereas another animal had to be sacrificed at 45 min | concentration at 1 h ([1]; FVB (wildtype), mouse, in vivo, loperamide 5 mg/kg i.v. with elacridar TPGS NP 100 mg/kg p.o. about 6 h before, read-out: Brain concentration of loperamide, individual animals): 2910 ng/g | concentration at 1 h ([1]; FVB, mouse, in vivo, 5 mg/kg, loperamide 5 mg/kg i.v. alone, read-out: Brain concentration of loperamide, mean): 73 ng/g | concentration at 1 h ([1]; FVB, mouse, in vivo, loperamide 5 mg/kg i.v. with elacridar TPGS NP 100 mg/kg p.o. about 6 h before, read-out: Brain concentration of loperamide, mean): 3700 ng/g | Brain concentration of loperamide, individual animals ([1]; loperamide 5 mg/kg i.v. alone): 83.8 ng/g and 79.4 ng/g and 84.1 ng/g and 78.1 ng/g and 41.6 ng/g | Brain concentration of loperamide, mean ([1]; loperamide 5 mg/kg i.v. alone): 73.4 ng/g | Brain concentration of loperamide, individual animals [1, 4]: 4376.5 ng/g and 4288.7 ng/g and 3981.2 ng/g and 2933.5 ng/g | Brain concentration of loperamide, mean [1, 4]: 3697.8 ng/g | increase of brain penetration by concomitant elacridar NP ([1]; with vs without elacridar TPGS NP 100 mg/kg p.o., brain at 1 h): 50 fold | change of plasma AUC by concomitant elacridar dosing (in vivo; AUC 5 min to 1 h, with vs without elacridar NP): remained unchanged | concentration at 5 min (in vivo; 5 mg/kg, Loperamide plasma concentration, mean, loperamide alone, 5 min): 1030 ng/mL | concentration at 30 min (in vivo; 5 mg/kg, Loperamide plasma concentration, mean, loperamide alone, 30 min): 221 ng/mL | concentration at 60 min (in vivo; 5 mg/kg, Loperamide plasma concentration, mean, loperamide alone, 60 min): 81.4 ng/mL | concentration at 5 min (in vivo; Loperamide plasma concentration, mean, loperamide with elacridar, 5 min): 989 ng/mL | concentration at 30 min (in vivo; Loperamide plasma concentration, mean, loperamide with elacridar, 30 min): 184 ng/mL | concentration at 60 min (in vivo; Loperamide plasma concentration, mean, loperamide with elacridar, 60 min): 140 ng/mL | AUC(0-t) (in vivo; 5 mg/kg, Loperamide plasma AUC(0-1 h), individual animals, loperamide alone): 740 ng·h/mL | AUC(0-t) (in vivo; 5 mg/kg, Loperamide plasma AUC(0-1 h), individual animals, loperamide with elacridar): 704 ng·h/mL | AUC(0-t) (in vivo; 5 mg/kg, Loperamide plasma AUC(0-1 h), mean, loperamide alone): 747 ng·h/mL | AUC(0-t) (in vivo; 5 mg/kg, Loperamide plasma AUC(0-1 h), mean, loperamide with elacridar): 744 ng·h/mL | Loperamide plasma AUC(0-1 h), individual animals (in vivo; loperamide alone): 43377.5 ng·min/mL and 43440.0 ng·min/mL and 47625.0 ng·min/mL and 45132.5 ng·min/mL | Loperamide plasma concentration, individual animals (in vivo; loperamide alone, 5 min): 2500.0 ng/mL and 430.0 ng/mL and 599.0 ng/mL and 679.0 ng/mL and 925.0 ng/mL | Loperamide plasma concentration, individual animals (in vivo; loperamide alone, 30 min): 191.0 ng/mL and 166.0 ng/mL and 168.0 ng/mL and 354.0 ng/mL and 226.0 ng/mL | Loperamide plasma concentration, individual animals (in vivo; loperamide alone, 60 min): 111.0 ng/mL and 87.5 ng/mL and 88.0 ng/mL and 26.0 ng/mL and 94.5 ng/mL | Loperamide plasma AUC(0-1 h), individual animals (in vivo; loperamide with elacridar): 44405.0 ng·min/mL and 46040.0 ng·min/mL and 45978.8 ng·min/mL | Loperamide plasma concentration, individual animals (in vivo; loperamide with elacridar, 5 min): 1220.0 ng/mL and 306.0 ng/mL and 376.0 ng/mL and 511.0 ng/mL and 2530.0 ng/mL | Loperamide plasma concentration, individual animals (in vivo; loperamide with elacridar, 30 min): 115.0 ng/mL and 178.0 ng/mL and 163.0 ng/mL and 282.0 ng/mL | Loperamide plasma concentration, individual animals (in vivo; loperamide with elacridar, 60 min): 106.0 ng/mL and 134.0 ng/mL and 270.5 ng/mL and 48.3 ng/mL

AUC(0-48 h) [2]: 260.3 µg·min/mL | AUC(0-inf) [2]: 272.2 µg·min/mL | Cmax [2]: 826.5 ng/mL | F [2]: 100.0% | Tmax [2]: 0 h | T½ [2]: 6.9 h
Molecule: DMSO

complications of dosing ([1]; mouse, in vivo, iv): without complications | Imatinib plasma concentration, mean (in vivo; imatinib alone, 5 min): 49580.0 ng/mL | Imatinib plasma concentration, mean (in vivo; imatinib alone, 30 min): 10116.0 ng/mL | Imatinib plasma concentration, mean (in vivo; imatinib alone, 60 min): 2068.0 ng/mL | Imatinib plasma concentration, mean (in vivo; imatinib with elacridar, 5 min): 51320.0 ng/mL | Imatinib plasma concentration, mean (in vivo; [5]): 10414.0 ng/mL | Imatinib plasma concentration, mean (in vivo; [6]): 4372.0 ng/mL
Molecule: imatinib
Imatinib plasma concentration, individual animals (in vivo; imatinib alone, 5 min): 49100 ng/mL and 50400 ng/mL and 38200 ng/mL and 61300 ng/mL and 48900 ng/mL | Imatinib plasma concentration, individual animals (in vivo; imatinib alone, 30 min): 6590 ng/mL and 11500 ng/mL and 7690 ng/mL and 13200 ng/mL and 11600 ng/mL | Imatinib plasma concentration, individual animals (in vivo; imatinib alone, 60 min): 1920 ng/mL and 1260 ng/mL and 2350 ng/mL and 2050 ng/mL and 2760 ng/mL | Imatinib plasma concentration, individual animals (in vivo; imatinib with elacridar, 5 min): 90800 ng/mL and 43500 ng/mL and 50000 ng/mL and 34400 ng/mL and 37900 ng/mL | Imatinib plasma concentration, individual animals (in vivo; [5]): 11000 ng/mL and 7860 ng/mL and 11700 ng/mL and 8910 ng/mL and 12600 ng/mL | Imatinib plasma concentration, individual animals (in vivo; [6]): 3630 ng/mL and 5580 ng/mL and 3840 ng/mL and 4710 ng/mL and 4100 ng/mL
